Data on one molecule can be found in patent US12539298B2, “Lobinaline N-oxides as positive allosteric modulators of the dopamine transporter with potential value in the treatment of substance abuse disorders” (University of Kentucky Research Foundation, priority 2019, dated 2026).

A short description of data set [1]: conditioned place preference (abuse potential). The format is in vivo, SD rats. The source says:
In conditioned place preference a chamber with distinct cues is repeatedly paired with administration of the test drug. A second chamber is repeatedly paired with a control injection. After conditioning, a test phase allows the rat to move between the chambers. If a drug is “rewarding” (i.e. has abuse potential), the rat spends more time in the drug-associated chamber. If it is aversive, the opposite result is obtained.
Methods: 6 male and 6 female SD rats were used for each drug and dose. Test drugs (5 or 25 mg/kg lobinaline, or 25 mg/Kg of lobinaline bi-N-oxide S.C) were paired with the “less preferred” compartment (standard for drugs that may be weakly reinforcing) for 20 minutes. On the next day, rats received a control (DMSO/saline) injection and were placed in the preferred chamber. After three repeated pairings (test and control), the subjects were given access to both chambers and the time spent in each compartment was recorded and scored by an observer blind to treatment. Analysis was by two way ANOVA with post hoc Bonnferoni with significance set at p<0.05. Results. Most animals spent most of the test period in the compartment originally preferred in the drug-free state, and there were no significant differences between drug and vehicle controls.

Data set [2] concerns the target DAT (Rattus norvegicus, UniProt P23977). As to the kind of experiment: [3H]GBR 12935 binding to rat striatal homogenate. Details: from tissue; host or cells: rat striatum (synaptosomes; homogenate).
Protocol: [3H]DA release from rat striatal synaptosomes: Synaptosomes preloaded with [3H]DA were exposed to lobinaline (10-500 uM), 30 min @ 37° C.). [3H]DA release was calculated by subtraction of activity following drug treatment from activity in the absence of drug.

Chain of DAT (P23977 whole entry): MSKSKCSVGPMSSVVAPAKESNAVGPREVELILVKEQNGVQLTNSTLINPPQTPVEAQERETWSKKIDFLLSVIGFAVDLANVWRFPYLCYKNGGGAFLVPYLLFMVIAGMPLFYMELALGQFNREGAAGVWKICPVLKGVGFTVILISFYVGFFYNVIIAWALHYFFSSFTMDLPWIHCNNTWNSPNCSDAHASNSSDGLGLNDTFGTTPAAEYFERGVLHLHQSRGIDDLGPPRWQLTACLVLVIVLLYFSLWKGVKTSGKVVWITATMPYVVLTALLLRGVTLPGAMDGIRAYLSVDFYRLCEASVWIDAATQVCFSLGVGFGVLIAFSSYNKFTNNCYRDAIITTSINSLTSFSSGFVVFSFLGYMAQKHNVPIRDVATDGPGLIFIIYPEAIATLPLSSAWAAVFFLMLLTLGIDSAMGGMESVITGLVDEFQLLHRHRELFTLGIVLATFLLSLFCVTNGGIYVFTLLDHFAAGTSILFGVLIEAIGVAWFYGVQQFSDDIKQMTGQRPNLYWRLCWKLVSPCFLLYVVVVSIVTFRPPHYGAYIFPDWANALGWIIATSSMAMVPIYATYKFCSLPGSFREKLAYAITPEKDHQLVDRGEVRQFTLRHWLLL

With `CN1CCCC2C(c3ccccc3)C(C3=NCCCC3)C(c3ccccc3)CC21` (centres unmarked) [lobinaline], the overt toxicity entry in data set [1] (after 3 repeated drug administrations) is “no signs of overt toxicity”. Moreover, the “sedation or locomotor activation” value in data set [1] (lobinaline 5 or 25 mg/kg, bi-N-oxide 25 mg/Kg S.C) is given as “no sedation or locomotor activation”. The “conditioned place preference or aversion” value in data set [1] (lobinaline 5 or 25 mg/kg, bi-N-oxide 25 mg/Kg S.C, three pairings) was “neither lobinaline nor the lobinaline bi-N-oxide produced conditioned place preference or aversion”. Also, the “extent of displacement of [3H]GBR 12935” value in data set [2] was “completely displaced”. In addition, the Ki in data set [2] (read-out: Ki, displacement of [3H]GBR 12935) stood at 2540 nM.

By Ki is commonly meant a measure of affinity in units of concentration, obtained from inhibition or displacement.
